Data: patent US9790506B2, “Diagnostic and screening methods for atopic dermatitis” (The Regents of the University of California, priority 2013, dated 2017)
Ends that are not written are not given here.

Key:
keratinocytes [1] = test: ratiometric Ca^2+ imaging of keratinocytes; format: cell-based, human; conditions: for SLIGRL-evoked Ca^2+ influx / intracellular Ca^2+ response of keratinocytes: SLIGRL 100 μM; for SLIGRL-evoked Ca^2+ influx / tryptase-evoked Ca^2+ influx: 2 mM Ca^2+, 50 μM 2-APB, 50 nM La^3+; for tryptase-evoked Ca^2+ influx / intracellular Ca^2+ response of keratinocytes: tryptase 100 nM; for intracellular Ca^2+ response of keratinocytes: BAM8-22 2 μM
Experimental: (§1) Physiological Ringer solution: 140 mM NaCl, 5 mM KCl, 10 mM HEPES, 2 mM CaCl2, 2 mM MgCl2, 10 mM D-(+)-glucose, pH 7.4 with NaOH. Images were collected and analyzed using MetaFluor (Molecular Devices).

NFAT = NFAT translocation to the nucleus in keratinocytes (immunostaining); format: cell-based, human; conditions: for SLIGRL-induced NFAT nuclear translocation in the presence of inhibitor: SLIGRL 100 μM + 2APB 50 μM or CsA 1 μM, 30 min
Experimental: Histology Histology was carried out as previously described (Gerhold, 2013). Antibodies: rabbit anti-PGP9.5 and rabbit anti-peripherin (Millipore) 1:1000; goat anti-TSLPR and mouse anti-NFATcI (Santa Cruz Biotechnology) 1:100. IL7Rα and TSLPR probes (Panomics) were used for in situ hybridization following the Quantigene protocol (Panomics).
Following a rise in Ca^2+, NFAT is dephosphorylated by the Ca^2+-dependent phosphatase calcineurin and translocates from the cytosol to the nucleus to promote transcription of target genes (Rao et al., 1997).

DRG neurons = test: ratiometric Ca^2+ imaging of DRG neurons; format: cell-based, mouse; conditions: for Ca^2+ levels in TSLP-positive cells on subsequent exposure: AITC 200 μM, CAP 1 μM, all TSLP-positive cells; for overlap of the TSLP-sensitive population with the population sensitive to the compound: DRG neurons, FIG. 3D; for prevalence of TSLP-sensitive neurons / TSLP-evoked Ca^2+ signals after pre-treatment: neurons pre-treated with blocker versus vehicle
Experimental: as §1

mice = test: mouse cheek model of itch (scratching behavior after intradermal injection); format: in vivo
Experimental: Mice and Behavior Mice (20-35 g) were housed in 12 h light-dark cycle at 21° C. […] For AITC behavior, 5 μL 10% AITC in mineral oil was applied to the right hind paw. Behavioral scoring was performed while blind to treatment and genotype. All experiments were performed under the policies and recommendations of the International Association for the Study of Pain and approved by the University of California, Berkeley Animal Care and Use Committee. […]

keratinocytes [2] = test: TSLP release from keratinocytes (ELISA); format: cell-based, human; conditions: 24 h treatment, tryptase 100 nM, SLIGRL 100 μM; for TSLP secretion: TG 1 μM, versus vehicle; for TSLP secretion in the absence of external Ca^2+: 0 Ca
Source text: TSLP release was normalized to vehicle.

keratinocytes [3] = test: perforated-patch voltage-clamp recordings on keratinocytes; format: cell-based, human; conditions: SLIGRL 100 μM
Experimental: Electrophysiology Recordings were collected at 5 kHz and filtered at 2 kHz using an Axopatch 200B and PClamp software. Electrode resistances were 2-6 MΩ. Perforated patch internal solution: 140 mM CsCl, 5 mM EGTA, 10 mM HEPES, pH 7.4 with CsOH, 0.24 mg ml^−1 Amphotericin B (Rae et al., 1991). Stimulation protocol: 10 ms step to −80 mV, 150 ms ramp from −80 mV to +80 mV. Current clamp internal solution: 140 mM KCl, 5 mM EGTA and 10 mM HEPES (pH 7.4 with KOH). Series resistance of all cells were <30 MΩ, and liquid junction potentials were <5 mV (no correction).

TSLP transcripts = test: expression of TSLP transcripts in keratinocytes; format: cell-based, human; conditions: PAR2-evoked SOCE; 3 h treatment with SLIGRL 100 μM versus vehicle
Experimental: RT-PCR RNA was extracted using RNeasy (Qiagen) and reverse transcription was performed using Superscript III. RT-PCR was carried out using SYBR Green (Invitrogen) on a StepOnePlus ABI machine. Threshold cycles for each transcript (Bogiatzi et al.) were normalized to GAPDH (ACt). Calibrations and normalizations used the 2^−ΔΔCt method where ΔΔCt=[(Ct (target gene)−Ct (reference gene)]−[Ct (calibrator)−Ct (reference gene)]; GAPDH=reference gene; scrambled siRNA=calibrator. Experiments were performed in triplicate.

DRG neuron = test: current-clamp recording in DRG neuron; format: cell-based, mouse; conditions: subset of CAP-sensitive DRG neurons
MrgprC11 = target: T1, MrgprC11 (Mus musculus, UniProt Q8CIP3); test: Ca^2+ response in the presence or absence of the mouse BAM8-22 receptor MrgprC11; format: cell-based; conditions: tryptase 3 μM
T1 sequence (Q8CIP3 1-322): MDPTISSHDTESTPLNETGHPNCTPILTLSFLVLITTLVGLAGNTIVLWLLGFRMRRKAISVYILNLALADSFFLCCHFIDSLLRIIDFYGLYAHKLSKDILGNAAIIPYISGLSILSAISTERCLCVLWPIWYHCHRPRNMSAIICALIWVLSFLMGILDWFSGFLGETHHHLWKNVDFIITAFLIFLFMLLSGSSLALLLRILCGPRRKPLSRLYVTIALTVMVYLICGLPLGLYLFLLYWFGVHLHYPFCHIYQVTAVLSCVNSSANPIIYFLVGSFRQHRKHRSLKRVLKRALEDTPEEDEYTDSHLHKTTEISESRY
Experimental: FIG. 15. […] MrgprX1 was amplified from DRG, but not keratinocytes. MrgprX1 and GAPDH were amplified from RT-treated tissue but not from “no RT” controls. (B) Representative response to BAM8-22 (BAM, 2 μM) in human keratinocytes. (C) Representative response to tryptase (TRY, 3 μM) and BAM8-22 (BAM, 2 μM) in the presence or absence of the mouse BAM8-22 receptor, MrgprC11. (D) Left: representative traces showing a neuron that is sensitive to BAM8-22 (BAM) but not tryptase (TRY, blue), and a neuron that is sensitive to tryptase but not BAM8-22 (black). Right: quantification of the prevalence of tryptase-responsive (TRY, black), BAM8-22-responsive (blue, BAM), and tryptase- and BAM8-22-responsive neurons in mouse dorsal root ganglia. n≧500 cells. Data are represented as mean+/−SEM

With `NCCOB(c1ccccc1)c1ccccc1` [2-APB, 2-Aminoethoxydiphenyl borate] the “SLIGRL-evoked Ca^2+ influx” value (keratinocytes [1]) was “significantly attenuated”, the “tryptase-evoked Ca^2+ influx” value (keratinocytes [1]) was “significantly attenuated” and the “SLIGRL-induced NFAT nuclear translocation in the presence of inhibitor” value (NFAT) was “attenuated”. The “SLIGRL-induced NFAT nuclear translocation in the presence of inhibitor” value (NFAT; listed as 2APB) was “prevented”.

`C=CCN=C=S` [AITC, allyl isothiocyanate] was tested, and the “Ca^2+ levels in TSLP-positive cells on subsequent exposure” value (DRG neurons) was “further increased”.

For `COc1cc(CNC(=O)CCCC/C=C/C(C)C)ccc1O` [CAP, capsaicin], the “Ca^2+ levels in TSLP-positive cells on subsequent exposure” value (DRG neurons) was “further increased”.

With `CCN(CC)CCCC(C)Nc1ccnc2cc(Cl)ccc12` (stereo not shown) [CQ, chloroquine] the “overlap of the TSLP-sensitive population with the population sensitive to the compound” value (“overlap of the TSLP-sensitive population” for short) (DRG neurons) was 6%.

With `[La+3]` [La^3+, lanthanum] the “SLIGRL-evoked Ca^2+ influx” value (keratinocytes [1]) was “significantly attenuated” and the “tryptase-evoked Ca^2+ influx” value (keratinocytes [1]) was “significantly attenuated”.

With `C=C(C)[C@]12C[C@@H](C)[C@@]34O[C@](Cc5ccccc5)(O[C@@H]1[C@@H]3C=C(COC(=O)Cc1ccc(O)c(OC)c1)C[C@]1(O)C(=O)C(C)=C[C@@H]41)O2` [RTX, resiniferatoxin] the “TSLP-evoked scratching after neuronal ablation” value (mice; RTX-treated mice compared to control mice, RTX two days prior to pruritogen) was “significantly decreased”.

`C/C=C(/C)C(=O)O[C@H]1C(C)=C2[C@H]([C@@H]1OC(=O)CCCCCCC)[C@@](C)(OC(C)=O)C[C@H](OC(=O)CCC)[C@@]1(O)[C@H]2OC(=O)[C@@]1(C)O` [TG, thapsigargin] was tested, and the TSLP secretion (keratinocytes [2]) was “significant increase”.

With `COc1ccc2c(c1)CC[C@@H]1[C@@H]2CC[C@]2(C)[C@@H](NCCCCCCN3C(=O)C=CC3=O)CC[C@@H]12` [U73122, 1-[6-[[(17β)-3-Methoxyestra-1,3,5(10)-trien-17-yl]amino]hexyl]-1H-pyrrole-2,5-dione] the “TSLP-evoked scratching after intradermal injection of PLC blocker” value (mice; 30 min preinjection, versus vehicle, scratching quantified for 20 min) was “significantly attenuated”, the “CQ-evoked scratching after intradermal injection of PLC blocker” value (mice; preinjection, versus vehicle) was “normal” and the “prevalence of TSLP-sensitive neurons / TSLP-evoked Ca^2+ signals after pre-treatment” value (DRG neurons) was “significantly reduced”.

For `O=C1OC2(c3ccccc31)c1ccc(O)c(O)c1Oc1c2ccc(O)c1O` [gallein], the “prevalence of TSLP-sensitive neurons / TSLP-evoked Ca^2+ signals after pre-treatment” value (DRG neurons) was “no effect”.

In the case of `NCCc1c[nH]cn1` [histamine], the “overlap of the TSLP-sensitive population” value (DRG neurons) is reported as 6%.

For `N.N.N.N.N.N.N.N.N.N.N.N.N.N.[Cl-].[Cl-].[Cl-].[Cl-].[Cl-].[Cl-].[O-2].[O-2].[Ru+3].[Ru+3].[Ru+4]` [ruthenium red], the “neuronal sensitivity to TSLP after TRPV1 and TRPA1 inhibition” value (DRG neurons; 20 μM ruthenium red) was “significantly decreased”.

In the case of “SLIGRL [widely used PAR2 ligand mimetic]”, the TSLP secretion (keratinocytes [2]) is reported as “robust secretion”, the “TSLP secretion in the absence of external Ca^2+” value (keratinocytes [2]) is reported as “not observed” and the “intracellular Ca^2+ response of keratinocytes” value (“intracellular Ca^2+ response” for short) (keratinocytes [1]) is reported as “evoked a rise in intracellular Ca^2+”. The “reversal potential of SLIGRL-evoked currents” value (keratinocytes [3]) was “no measurable reversal potentials below +80 mV”, the SLIGRL-evoked currents (keratinocytes [3]; dependent on extracellular Ca^2+, inwardly-rectifying) was “triggered an ORAI1/2-like current” and the “NFAT translocation to the nucleus” value (NFAT; SLIGRL 100 μM for 30 minutes) was “induced robust NFAT translocation”. For the same compound, the “expression of TSLP transcripts” value (TSLP transcripts) was “robustly increased”.

For “TSLP: AD cytokine released from keratinocytes; injected as pruritogen, acts on TSLPR-positive sensory neurons”, the “TSLP-evoked itch behaviors in strains lacking T and B cells or mast cells” value (mice; RAG1−/−, NOD SCID, Kit(W-sh) mice, no significant differences to wild type littermates) was “robust itch behaviors”, the “time after injection at which robust itch behaviors were observed” value (mice; TSLP injection) was no more than 5 min and the “wiping (pain behavior)” value (mice; TSLP injection into the cheek of wild type mice) was “never observed”. For the same compound, the latency to scratch (mice; TSLP injection into the cheek of wild type mice (2.5 μg/20 μl)) was 4.1 ± 0.3 min, the itch-evoked scratching (mice; TSLP injection into the cheek of wild type mice, versus vehicle) was “evoked robust scratching” and the “TSLP-evoked scratching in TRPA1-deficient mice” value (mice; cheek injection 2.5 μg/10 μL) was “abolished”. The “TSLP-evoked scratching in TRPV1-deficient mice” value (mice; cheek injection 2.5 μg/10 μL) was “normal”, the “TSLP-evoked scratching in IL7Rα-deficient mice” value (mice; cheek injection, versus wild type) was “significantly attenuated” and the “DRG neurons showing robust increases in intracellular Ca^2+” value (DRG neurons; TSLP application (2 ng/mL), wild-type neurons) was 4.1±0.6%. The “source of TSLP-evoked Ca^2+ signal in sensory neurons” value (DRG neurons; absence (0 mM) and presence (2 mM) of extracellular Ca^2+) was “triggers both release of Ca^2+ from intracellular stores, and subsequent Ca^2+ influx”, the “evoked Ca^2+ signaling abolished in IL7Rα-deficient neurons” value (DRG neurons; neurons isolated from IL7Rα-deficient mice) was “abolished” and the “TSLP-evoked Ca^2+ signals in TRPA1-deficient neurons” value (DRG neurons; versus wild type littermates) was “significantly attenuated”. The action potential firing (DRG neuron) was “triggered action potential firing”.

“VGRPEWWMDYQKRYG [BAM8-22, MrgprX1-specific ligand, endogenous pruritogen]” was tested, and the “overlap of the TSLP-sensitive population” value (DRG neurons) was 0% and the “intracellular Ca^2+ response” value (keratinocytes [1]) was “insensitive”.

tryptase: endogenous PAR2 agonist was tested, and the “tryptase-evoked itch in IL7Rα-deficient mice” value (mice; cheek 100 μg/20 μL) was “significantly attenuated”, the “tryptase-evoked itch in PAR2-deficient mice” value (mice; cheek 100 μg/20 μL) was “significantly attenuated” and the tryptase-evoked itch behaviors (mice; wild type mice, cheek 100 μg/20 μL, scratching quantified for 1 h) was “induced robust itch behaviors”. For the same compound, the TSLP secretion (keratinocytes [2]) was “robust secretion”, the “TSLP secretion in the absence of external Ca^2+” value (keratinocytes [2]) was “not observed” and the “intracellular Ca^2+ response” value (keratinocytes [1]) was “evoked a rise in intracellular Ca^2+”. For the same compound, the “activation of MrgprC11” value (MrgprC11) was “does not activate”.
